Results taken from patent US10125101B2, “Indanylaminopyridylcyclopropanecarboxylic acids, pharmaceutical compositions and uses thereof” (Boehringer Ingelheim International GmbH, priority 2016, dated 2018).
Like-named read-outs stand apart in the source and are kept apart here.

What was measured:
human GPR40 receptor = human GPR40 receptor (Homo sapiens (Human), UniProt O14842); test: IP1 accumulation measurements using the IPOne assay system; type: cell-based
Method: IP1 accumulation measurements using the IPOne assay system—1321N1 cells stably expressing human GPR40 receptor (Euroscreen, Belgium) are seeded 24 h before the assay in white 384-well plates in culture medium containing 10% FCS, 1% Na-Pyruvate and 400 μg/mL G418. IP1 is assayed according to the manufacturer's description (Cisbio Bioassays, France). In brief, the assay is started by substitution of the culture medium by stimulation buffer (Hepes 10 mM, CaCl2 1 mM, MgCl2 0.5 mM, KCl 4.2 mM, NaCl 146 mM, glucose 5.5 mM and LiCl 50 mM, pH 7.4). Cells are stimulated for 1 h at 37° C., 5% CO2 by addition of the compounds that are diluted in stimulation buffer containing LiCl. Assays are stopped by adding HTRF-conjugates (IP1-d2 and Anti-IP1 cryptate Tb) and lysis buffer, provided by the manufacturer. After an incubation time of 1 h at room temperature plates are measured using an EnVision™, Perkin Elmer. The obtained fluorescence ratios at 665/615 […] are then used to calculate the pEC50 values using Assay Explorer 3.3 Software (Accelrys, Inc.) by interpolation using an IP1 reference curve and subsequent sigmoidal curve fitting allowing for a variable hill slope.

Aqueous solubility = type: physicochemical; conditions: buffer pH 2.2, 24 h shaking, 2.5% DMSO
Method: Starting from a 10 mM DMSO stock solution aliquots are diluted with acetonitrile/water (1/1) or buffer, respectively. After 24 h of shaking, the solutions are filtrated and analyzed by LC-UV. The amount dissolved in buffer is compared to the amount in the acetonitrile solution.

[1] = biological target: cytochrome P450 2C8-isoenzyme (Homo sapiens (Human), UniProt P10632); test: Inhibition of CYP-2C8 (amodiaquine deethylation, human liver microsomes); type: in vitro ADME; conditions: amodiaquine 1 μM, 37° C.
cytochrome P450 2C8-isoenzyme, sequence (P10632 whole entry): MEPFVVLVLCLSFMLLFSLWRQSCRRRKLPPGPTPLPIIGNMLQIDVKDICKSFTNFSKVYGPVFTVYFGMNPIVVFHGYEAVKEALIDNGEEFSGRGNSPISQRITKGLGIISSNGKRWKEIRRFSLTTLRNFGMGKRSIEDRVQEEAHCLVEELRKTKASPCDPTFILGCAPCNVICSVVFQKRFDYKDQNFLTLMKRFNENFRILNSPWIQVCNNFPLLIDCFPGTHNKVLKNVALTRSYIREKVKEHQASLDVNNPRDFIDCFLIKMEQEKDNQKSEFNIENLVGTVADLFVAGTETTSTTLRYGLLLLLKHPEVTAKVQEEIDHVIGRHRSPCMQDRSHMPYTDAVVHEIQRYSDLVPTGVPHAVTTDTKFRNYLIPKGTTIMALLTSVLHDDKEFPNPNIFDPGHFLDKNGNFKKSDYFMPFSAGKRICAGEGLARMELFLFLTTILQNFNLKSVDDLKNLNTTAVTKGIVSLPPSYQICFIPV
Method: (§1) All assays are carried out on a robotic system in 96 well plates. The final incubation volume contains TRIS buffer (0.1 M), MgCl2 (5 mM), human liver microsomes (0.05 mg/mL), amodiaquine (1 μM) and the test compound at five different concentrations or no compound (high control) in duplicate (e.g. highest concentration 10-50 μM with subsequent serial 1:4 dilutions). Following a short preincubation period, reactions are started with the cofactor (NADPH, 1 mM) and stopped by cooling the incubation down to 8° C. and subsequently by addition of one volume of acetonitrile. An internal standard solution—the stable isotope d5-desethylamodiaquine—is added after quenching of incubations. Peak area analyte (=metabolite formed) and internal standard is determined by LC-MS/MS. The resulting peak area ratio analyte to internal standard in these incubations is compared to a control activity containing no test compound. Within each of the assay runs, the IC50 of a positive control inhibitor (Montelukast) is determined.

[2] = biological target: cytochrome P450 2C9-isoenzyme (Homo sapiens (Human), UniProt P11712); test: Inhibition of CYP-2C9 (diclofenac hydroxylation, human liver microsomes); type: in vitro ADME; conditions: diclofenac 10 μM, 37° C.
cytochrome P450 2C9-isoenzyme, sequence (P11712 whole entry): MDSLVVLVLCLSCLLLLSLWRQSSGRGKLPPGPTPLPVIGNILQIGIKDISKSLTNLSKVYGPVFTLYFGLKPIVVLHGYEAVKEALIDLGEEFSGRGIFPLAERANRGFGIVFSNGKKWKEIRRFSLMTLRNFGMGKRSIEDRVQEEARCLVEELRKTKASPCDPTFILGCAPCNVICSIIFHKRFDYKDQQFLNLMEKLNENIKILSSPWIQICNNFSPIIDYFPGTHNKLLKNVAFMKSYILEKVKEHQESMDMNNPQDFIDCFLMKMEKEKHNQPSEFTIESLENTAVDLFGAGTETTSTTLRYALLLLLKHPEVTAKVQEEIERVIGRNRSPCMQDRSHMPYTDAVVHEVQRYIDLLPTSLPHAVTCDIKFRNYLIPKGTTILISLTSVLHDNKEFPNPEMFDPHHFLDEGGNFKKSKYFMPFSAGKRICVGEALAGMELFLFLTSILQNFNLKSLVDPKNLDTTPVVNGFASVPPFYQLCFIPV
Method: as §1, with “(0.1” for “(0.05”, “diclofenac (10” for “amodiaquine (1”, “(e.g.,” for “(e.g.”, “^13C6-hydroxydiclofenac—is” for “d5-desethylamodiaquine—is”, “(sulfaphenazole)” for “(Montelukast)”

[3] = Chemical stability (degradation kinetics) in acidic aqueous media; type: physicochemical; conditions: pH value ca. 1.2 (acetonitrile/0.1 M aqueous HCl 2:3), 37° C.
Method: Degradation kinetics is used to simulate chemical stability of compounds in the acidic part of the gastro intestinal tract. […] Their application as medical drugs to treat human diseases is therefore less restricted and troublesome.
The chemical stability of the compounds of the invention at pH value of ca. 1.2 is determined as follows:
Compound is dissolved in an HPLC vial either in a mixture of acetonitrile/0.1 M aqueous HCl (2:3; pH ca. 1.2) or in a mixture of acetonitrile/McIlvaine buffer pH 7.4 (2:3) to get a concentration of approximately 0.25 mg/ml. The vial was then transferred into an HPLC autosampler system and maintained at a temperature of 37° C. A first sample is taken and injected immediately into a standard HPLC system with a UV DAD detector. Further samples are injected after 2, 4, 6, 8 and 10 hours. Amount of degraded compound is measured by determining the recovery rate of compound [%] for each injection using an HPLC standard gradient method. Therefore the peak area of the main peak for the first injection (AUt0) is determined and set as 100%. Peak area of the main peak is determined also for the further injections (AUtn, n=2, 4, 6, 8, 10) and expressed as fraction of (AUt0)/(AUtn, n=2, 4, 6, 8, 10) [%].

[4] = 1321N1 cells stably expressing human GPR40, 1 h stimulation, read-out: EC50

human GPR40 receptor, sequence (O14842 whole entry): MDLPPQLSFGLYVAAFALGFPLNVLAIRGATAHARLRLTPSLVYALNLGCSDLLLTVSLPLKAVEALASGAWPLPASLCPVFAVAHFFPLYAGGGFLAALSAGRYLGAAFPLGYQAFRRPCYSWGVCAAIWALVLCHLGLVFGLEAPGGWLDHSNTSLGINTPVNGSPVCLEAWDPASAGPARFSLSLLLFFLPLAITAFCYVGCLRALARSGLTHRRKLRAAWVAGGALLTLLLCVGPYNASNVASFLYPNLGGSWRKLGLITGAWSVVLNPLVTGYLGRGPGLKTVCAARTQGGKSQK

SMILES	EC50 (human GPR40 receptor; [4]) [µM]	Solubility at pH value 2.2 (Aqueous solubility) [μg/mL]	IC50 [1] [µM]	IC50 [2] [µM]	Amount of degradation after 2 h [3]	EC50 (human GPR40 receptor; head-to-head compilation, given as IC50, values equal the EC50 of Table 2, read-out: GPR40: IC50) [µM]	solubility at 24 h (Aqueous solubility; aqueous buffer, kinetic from dmso stock) [µg/mL]
O=C(O)[C@H]1C[C@@H]1c1ccc(N[C@@H]2CCc3c(-c4ccccc4C(F)(F)F)ccc(F)c32)cn1 [Example 31]	0.027	87	15	31			
Cc1cc(OCC2CCOC2)cc(C)c1-c1ccc(F)c2c1CC[C@H]2Nc1ccc([C@H]2C[C@@H]2C(=O)O)nc1 (stereo partly drawn) [Example 32]	0.007	123	26	> 50			
Cc1cc(-c2nnn(C)n2)cc(C)c1-c1ccc(F)c2c1CC[C@H]2Oc1ccc([C@H]2C[C@@H]2C(=O)O)cc1 [Example 33 in WO 2013/178575]					8%		
Cc1cc(OCC(C)(C)O)cc(C)c1-c1ccc(F)c2c1CC[C@H]2Nc1ccc([C@H]2C[C@@H]2C(=O)O)nc1 [Example 34]	0.01	111	45	> 50			
Cc1cc(OC2CCOCC2)cc(C)c1-c1ccc(F)c2c1CC[C@H]2Nc1ccc([C@H]2C[C@@H]2C(=O)O)nc1 [Example 35]	0.011	106	31	> 50			
CC(C)c1ccccc1-c1ccc(F)c2c1CC[C@H]2Nc1ccc([C@H]2C[C@@H]2C(=O)O)nc1 [Example 36]	0.015	91	10	22			
Cc1cc(OCC2(O)CCOCC2)cc(C)c1-c1ccc(F)c2c1CC[C@H]2Nc1ccc([C@H]2C[C@@H]2C(=O)O)nc1 [Example 37]	0.019	119	41	> 50			
Cc1cc(OCC2(O)CCS(=O)(=O)CC2)cc(C)c1-c1ccc(F)c2c1CC[C@H]2Nc1ccc([C@H]2C[C@@H]2C(=O)O)nc1 [Example 38]	0.018	>154	> 50	> 50			
Cc1cc(C(=O)N(C)C)cc(C)c1-c1ccc(F)c2c1CC[C@H]2Nc1ccc([C@H]2C[C@@H]2C(=O)O)nc1 [Example 39]	0.148	118	> 50	> 50			
Cc1cc(-c2nnn(C)n2)cc(C)c1-c1ccc(F)c2c1CC[C@H]2Oc1ccc([C@H]2C[C@@H]2C(=O)O)cc1 [Example 45 in WO 2013/178575, reference compound]		< 1	5	10		0.008	< 1
Cc1cc(-c2nnn(C)n2)cc(C)c1-c1ccc(F)c2c1CC[C@H]2Oc1ccc([C@H]2C[C@@H]2C(=O)O)cc1 [Example 54 in WO 2013/178575]					2.5%^		
